The source of these data is patent publication US8765779B2, “Tricyclic derivatives and their pharmaceutical use and compositions” (Cephalon, Inc., priority 2009, dated 2014).

Counter-ions that a name gives are not always drawn.

The first test deals with T1, human 5-HT6 receptor (Homo sapiens, UniProt P50406).
T1 construct: host or cells: CHO-K1 cells, stably transfected; membranes prepared in house
T1 sequence (P50406 whole entry): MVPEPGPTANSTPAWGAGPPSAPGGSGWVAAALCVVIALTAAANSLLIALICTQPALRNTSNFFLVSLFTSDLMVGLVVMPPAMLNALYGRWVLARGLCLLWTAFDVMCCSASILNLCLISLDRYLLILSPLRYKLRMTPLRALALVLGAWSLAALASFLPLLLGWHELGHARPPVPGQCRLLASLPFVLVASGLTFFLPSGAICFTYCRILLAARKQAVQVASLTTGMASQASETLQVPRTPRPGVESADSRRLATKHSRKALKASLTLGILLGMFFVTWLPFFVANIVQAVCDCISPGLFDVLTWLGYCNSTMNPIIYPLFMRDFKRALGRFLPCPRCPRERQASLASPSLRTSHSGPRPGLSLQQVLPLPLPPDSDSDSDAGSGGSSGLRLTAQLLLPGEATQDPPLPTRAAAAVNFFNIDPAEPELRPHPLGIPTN
Description: Human 5-HT6 Receptor Binding Assay ([3H]LSD displacement, scintillation beads). The following applies: membranes of CHO-K1 cells with recombinant human 5-HT6, 4 nM [3H]LSD; Table 1, class symbols; read-out: h5-HT6 (Ki).
Usually Ki stands for a measure of affinity in units of concentration, obtained from inhibition or displacement. Turning to `N#Cc1ccc(COc2cccc(S(=O)(=O)c3ccc4c(c3)OC3CNCCC43)c2)cc1` (stereo not shown) [Example 551], the Ki was < 500 nM.
Take `O=S(=O)(c1cccc(OCC2CCCCO2)c1)c1ccc2c(c1)OC1CNCCC21` (stereo not shown) [Example 553]: the Ki was < 500 nM.
On the same count and under the same terms, under `CCCCOc1cccc(S(=O)(=O)c2ccc3c(c2)OC2CNCCC32)c1` (stereo not shown) [Example 554] stands < 500 nM; under `O=S(=O)(c1cccc(OCC2CC2)c1)c1ccc2c(c1)OC1CNCCC21` (stereo not shown) [Example 555], < 500 nM.
On the same count and under the same terms, under `COC(=O)CCCCOc1cccc(S(=O)(=O)c2ccc3c(c2)OC2CNCCC32)c1` (stereo not shown) [Example 556] stands < 500 nM; under `CCCCCOc1cccc(S(=O)(=O)c2ccc3c(c2)OC2CNCCC32)c1` (stereo not shown) [Example 557], < 500 nM.
Still for that read-out and setting: under `COCCOc1cccc(S(=O)(=O)c2ccc3c(c2)OC2CNCCC32)c1` (stereo not shown) [Example 558] stands 500 to 1000 nM.
As to `O=S(=O)(c1cccc(OCc2cccnc2)c1)c1ccc2c(c1)OC1CNCCC21` (stereo not shown) [Example 559], the inhibitory constant (Ki) was < 500 nM.
On to `Cn1cnc(COc2cccc(S(=O)(=O)c3ccc4c(c3)OC3CNCCC43)c2)n1` (stereo not shown) [Example 560], for which the Ki was > 1000 nM.
The same measure, in the same setting: with `O=S(=O)(c1cccc(OCc2ccncc2)c1)c1ccc2c(c1)OC1CNCCC21` (stereo not shown) [Example 561] the figure was < 500 nM; with `O=S(=O)(c1cccc(OCc2ccccn2)c1)c1ccc2c(c1)OC1CNCCC21` (stereo not shown) [Example 562], < 500 nM.
Regarding `NC(=O)COc1cccc(S(=O)(=O)c2ccc3c(c2)OC2CNCCC32)c1` (stereo not shown) [Example 563], the Ki was > 1000 nM.
As for `O=C(COc1cccc(S(=O)(=O)c2ccc3c(c2)OC2CNCCC32)c1)N1CCCC1` (stereo not shown) [Example 564], the inhibition constant Ki is > 1000 nM.
The same measure, in the same setting: under `Cc1cc(COc2cccc(S(=O)(=O)c3ccc4c(c3)OC3CNCCC43)c2)no1` (stereo not shown) [Example 565] stands < 500 nM; under `Cc1c(OCc2cccnc2)cccc1S(=O)(=O)c1ccc2c(c1)OC1CNCCC21` (stereo not shown) [Example 566], < 500 nM.
In the case of `O=S(=O)(c1cccc(OCc2cnccn2)c1)c1ccc2c(c1)OC1CNCCC21` (stereo not shown) [Example 567], the inhibition constant Ki was < 500 nM.
Same read-out and setting: with `O=S(=O)(c1cccc(OCCCO)c1)c1ccc2c(c1)OC1CNCCC21` (stereo not shown) [Example 568] the figure was < 500 nM; with `Cc1nc(COc2cccc(S(=O)(=O)c3ccc4c(c3)OC3CNCCC43)c2)cs1` (stereo not shown) [Example 569], < 500 nM.
Consider `O=S(=O)(c1cccc(OCC2CCOCC2)c1)c1ccc2c(c1)OC1CNCCC21` (stereo not shown) [Example 570, 7-{[3-(tetrahydro-2H-pyran-4-ylmethoxy)phenyl]sulfonyl}-1,2,3,4,4a,9a-hexahydro[1]benzofuro[2,3-c]pyridine], for which the Ki is < 500 nM.
Take `O=S(=O)(c1cccc(OC2CCOCC2)c1)c1ccc2c(c1)OC1CNCCC21` (stereo not shown) [Example 571]: the Ki was < 500 nM.
The same measure, in the same setting: under `CCCOc1cccc(S(=O)(=O)c2ccc3c(c2)OC2CNCCC32)c1` (stereo not shown) [Example 572] stands < 500 nM.
For the molecule `O=S(=O)(c1cccc(OCCn2cccc2)c1)c1ccc2c(c1)OC1CNCCC21` (stereo not shown) [Example 573], the Ki was < 500 nM.
Still for that read-out and setting: with `N#CCCCCOc1cccc(S(=O)(=O)c2ccc3c(c2)OC2CNCCC32)c1` (stereo not shown) [Example 574] the figure was < 500 nM.
Consider `COc1cccc(COc2cccc(S(=O)(=O)c3ccc4c(c3)OC3CNCCC43)c2)c1` (stereo not shown) [Example 575], for which the inhibitory constant (Ki) is < 500 nM.
Still for that read-out and setting: with `COCCCOc1cccc(S(=O)(=O)c2ccc3c(c2)OC2CNCCC32)c1` (stereo not shown) [Example 576] the figure was < 500 nM.
Same read-out and setting: with `O=S(=O)(c1cccc(OCC2CCCO2)c1)c1ccc2c(c1)OC1CNCCC21` (stereo not shown) [Example 577] the figure was < 500 nM; with `O=S(=O)(c1cccc(OCC(F)F)c1)c1ccc2c(c1)OC1CNCCC21` (stereo not shown) [Example 578], < 500 nM.
The same measure, in the same setting: under `O=S(=O)(c1cccc(Oc2ccccn2)c1)c1ccc2c(c1)OC1CNCCC21` (stereo not shown) [Example 579] stands < 500 nM; under `O=S(=O)(c1cccc(Oc2cnccn2)c1)c1ccc2c(c1)OC1CNCCC21` (stereo not shown) [Example 580], < 500 nM.
On to `O=S(=O)(c1cccc(OCC2CCOCC2)c1)c1ccc2c(c1)OC1CNCCC21` (stereo not shown) [Example 581, 7-{[3-(tetrahydro-2H-pyran-4-ylmethoxy)phenyl]sulfonyl}-1,2,3,4,4a,9a-hexahydro[1]benzofuro[2,3-c]pyridine], for which the Ki is < 500 nM.
On the same count and under the same terms, under `Cc1c(OCC2CCOCC2)cccc1S(=O)(=O)c1ccc2c(c1)OC1CNCCC21` (stereo not shown) [Example 582] stands < 500 nM; under `COc1cc(OC2CCC2)cc(S(=O)(=O)c2ccc3c(c2)OC2CNCCC32)c1` (stereo not shown) [Example 583], < 500 nM.
The same measure, in the same setting: with `COc1cc(OCC2CCOCC2)cc(S(=O)(=O)c2ccc3c(c2)OC2CNCCC32)c1` (stereo not shown) [Example 584] the figure was < 500 nM; with `COc1cc(OCC2CC2)cc(S(=O)(=O)c2ccc3c(c2)OC2CNCCC32)c1` (stereo not shown) [Example 585], < 500 nM; with `COc1cc(OC2CCCC2)cc(S(=O)(=O)c2ccc3c(c2)OC2CNCCC32)c1` (stereo not shown) [Example 586], < 500 nM.
As to `CCCCOc1cc(OC)cc(S(=O)(=O)c2ccc3c(c2)OC2CNCCC32)c1` (stereo not shown) [Example 587], the Ki is < 500 nM.
The same measure, in the same setting: with `COCCCOc1cc(OC(C)C)cc(S(=O)(=O)c2ccc3c(c2)OC2CNCCC32)c1` (stereo not shown) [Example 588] the figure was < 500 nM; with `CC(C)Oc1cc(OC(CO)CCl)cc(S(=O)(=O)c2ccc3c(c2)OC2CNCCC32)c1` (stereo not shown) [Example 589], < 500 nM.
On the same count and under the same terms, with `CC(C)Oc1cc(OCCO)cc(S(=O)(=O)c2ccc3c(c2)OC2CNCCC32)c1` (stereo not shown) [Example 590] the figure was < 500 nM; with `O=S(=O)(c1cc(F)cc(OCC2CCOCC2)c1)c1ccc2c(c1)OC1CNCCC21` (stereo not shown) [Example 591], < 500 nM; with `O=S(=O)(c1ccccc1)c1ccc2c3c(oc2c1)CN(CCO)CC3` [Example 592, 2-[7-(Phenylsulfonyl)-3,4-dihydro[1]benzofuro[2,3-c]pyridin-2(1H)-yl]ethanol], < 500 nM.
Still for that read-out and setting: with `CC(C)CN1CCc2c(oc3cc(S(=O)(=O)c4ccccc4)ccc23)C1` [Example 593] the figure was < 500 nM; with `COCCN1CCc2c(oc3cc(S(=O)(=O)c4ccccc4)ccc23)C1` [Example 594], < 500 nM; with `O=S(=O)(c1ccccc1)c1ccc2c3c(oc2c1)CN(CCCO)CC3` [Example 595], < 500 nM.
`O=S(=O)(c1ccccc1)c1ccc2c3c(oc2c1)CN(CCc1ccccc1)CC3` [Example 596]: the Ki was < 500 nM.
Same read-out and setting: under `O=S(=O)(c1ccccc1)c1ccc2c3c(oc2c1)CN(Cc1ccccc1)CC3` [Example 597] stands 500 to 1000 nM.
On the same count and under the same terms, with `O=S(=O)(c1ccccc1)c1ccc2c3c(oc2c1)CN(CC(F)(F)F)CC3` [Example 598] the figure was < 500 nM; with `O=S(=O)(c1cccc(Cl)c1)c1ccc2c3c(oc2c1)CN(CCO)CC3` [Example 599], < 500 nM.
Still for that read-out and setting: with `CC(C)CN1CCc2c(oc3cc(S(=O)(=O)c4cccc(Cl)c4)ccc23)C1` [Example 600] the figure was < 500 nM.
Consider `O=S(=O)(c1cccc(Cl)c1)c1ccc2c3c(oc2c1)CN(CCCO)CC3` [Example 601], for which the Ki is < 500 nM.
Still for that read-out and setting: under `O=S(=O)(c1cccc(Cl)c1)c1ccc2c3c(oc2c1)CN(CCc1ccccc1)CC3` [Example 602] stands < 500 nM.
For `O=S(=O)(c1cccc(Cl)c1)c1ccc2c3c(oc2c1)CN(Cc1ccccc1)CC3` [Example 603], the inhibition constant (Ki) is < 500 nM.
Same read-out and setting: under `O=S(=O)(c1cccc(Cl)c1)c1ccc2c3c(oc2c1)CN(CC(F)(F)F)CC3` [Example 604] stands < 500 nM.
`CCN1CCC2c3ccc(S(=O)(=O)c4ccccc4)cc3OC2C1` (stereo not shown) [Example 605]: the Ki was in the range of 500 to 1000 nM.
Same read-out and setting: under `O=S(=O)(c1ccccc1)c1ccc2c(c1)OC1CN(C3CCC3)CCC21` (stereo not shown) [Example 606, 2-Cyclobutyl-7-(phenylsulfonyl)-1,2,3,4,4a,9a-hexahydro[1]benzofuro[2,3-c]pyridine trifluoroacetic acid salt] stands < 500 nM.
On to `CN1CCC2c3ccc(S(=O)(=O)c4ccccc4)cc3OC2C1` (stereo not shown) [Example 607], for which the Ki was < 500 nM.
On to `CC(C)N1CCC2c3ccc(S(=O)(=O)c4ccccc4)cc3OC2C1` (stereo not shown) [Example 608, 7-(phenylsulfonyl)-2-(propan-2-yl)-1,2,3,4,4a,9a-hexahydro[1]benzofuro[2,3-c]pyridine], for which the Ki is < 500 nM.
Still for that read-out and setting: under `O=S(=O)(c1ccccc1)c1ccc2c(c1)OC1CN(C3CCCC3)CCC21` (stereo not shown) [Example 609] stands < 500 nM.
Same read-out and setting: under `O=S(=O)(c1ccccc1)c1ccc2c(c1)OC1CN(C3CCCCC3)CCC21` (stereo not shown) [Example 610] stands 500 to 1000 nM.
With `O=S(=O)(c1ccccc1)c1ccc2c(c1)OC1CN(Cc3ccccc3)CCC21` (stereo not shown) [Example 611], the Ki was < 500 nM.
Still for that read-out and setting: under `COc1cc(OC(C)C)cc(S(=O)(=O)c2ccc3c(c2)OC2CN(C4CCC4)CCC32)c1` (stereo not shown) [Example 612] stands < 500 nM; under `CC(=O)N1CCC2c3ccc(S(=O)(=O)c4ccccc4)cc3OC2C1` (stereo not shown) [Example 613, 1-[7-(Phenylsulfonyl)-3,4,4a,9a-tetrahydro[1]benzofuro[2,3-c]pyridin-2(1H)-yl]ethanone], > 1000 nM; under `CC(=O)N1CCc2c(oc3cc(S(=O)(=O)c4ccccc4)ccc23)C1` [Example 614, 1-[7-(Phenylsulfonyl)-3,4-dihydro[1]benzofuro[2,3-c]pyridin-2(1H)-yl]ethanone trifluoroacetate], < 500 nM.
The same measure, in the same setting: under `CC(=O)N1CCc2c(oc3cc(S(=O)(=O)c4cccc(Cl)c4)ccc23)C1` [Example 615, 1-{7-[(3-Chlorophenyl)sulfonyl]-3,4-dihydro[1]benzofuro[2,3-c]pyridin-2(1H)-yl}ethanone] stands < 500 nM; under `O=S(=O)(c1cccc(F)c1)c1ccc2c3c(oc2c1)C1CCN1CC3` (stereo not shown) [Example 616, 8-[(3-Fluorophenyl)sulfonyl]-1,4,5,10b-tetrahydro-2H-azeto[1,2-a][1]benzofuro[2,3-c]pyridine], < 500 nM.
With `O=S(=O)(c1cccc(F)c1)c1ccc2c3c(oc2c1)C1CCCCN1CC3` (stereo not shown) [Example 617], the inhibition constant (Ki) is < 500 nM.

The test is the same for the next values; noted with them: membranes of CHO-K1 cells with recombinant human 5-HT6, 4 nM [3H]LSD; specific data; read-out: h5-HT6 (Ki).
In the case of `CC(C)N1CCC2c3ccc(S(=O)(=O)c4ccccc4)cc3OC2C1` (stereo not shown) [Example 608, 7-(phenylsulfonyl)-2-(propan-2-yl)-1,2,3,4,4a,9a-hexahydro[1]benzofuro[2,3-c]pyridine], the inhibition constant (Ki) was determined as 49.4 nM.
